{"source": "patent US11175296B2", "about": "“Methods of diagnosing and treating cancer comprising ME1” (Washington University, priority 2016, dated 2021)", "key": {"[1]": {"test_system": "SYO-1 and FUJI synovial sarcoma (SS) cell lines", "assay": "Pretreatment before glucose deprivation, protection from cell death (PI FACS)", "assay_type": "cell-based", "experimental": "During the routine cell culture splitting procedure, cell lines were plated in 6 well plates at 200,000 cells in 2 mL media. Samples were incubated at 37° C. for duration of experiment. Samples were washed with PBS and detached with 0.05% Trypsin/EDTA. Aliquots were diluted 1:2 with Trypan Blue (Sigma) and a viable cell count was obtained using a hemacytometer. For glucose and glutamine deprivation experiments, 200,000 cells were plated in standard media and incubated overnight. Samples were washed 3 times with 1×DPBS (Gibco), and the media was changed to DMEM (control samples) or glucose/glutamine free DMEM (experimental samples). Cell counts were taken as previously described at 2, 4, 6, and 8 hours after the media was changed, and normalized to cell counts taken from growth samples counted at the time the media was changed.\n(§1) For FACS analysis, cell lines were plated at 200,000 cells per well, and incubated in various culture conditions. Media was collected in a FACS tube and samples were washed with PBS. The PBS was transferred into the FACS tube, and 0.5 mL 0.05% Trypsin/EDTA was added to each well. Samples were incubated for 5 minutes at 37° C., and diluted with 0.5 mL complete media before being transferred to the FACS tube. Wells were washed once with PBS, transferred to the FACS tube, and centrifuged at 800 g for 5 minutes at room temperature. The supernatant was aspirated off, and pellets were resuspended in 200 μL PBS (unstained control samples used for gating) or 200 μL of 1 μg/mL propidium iodide dissolved in PBS. Samples were run on a FAScan instrument and fluorescence analyzed on the Blue FL2 channel. Data was further analyzed using FloJo software.\nCell viability was determined in tissue culture experiments by the trypan blue dye exclusion test. For the evaluation of glucose deprivation, cell lines were plated in a 6-well format at 200,000 cells per well on day 1. SYO was cultured and plated in Dulbecco's Modified Eagle Medium (DMEM) with 10% FBS and penicillin/streptomycin (include additional glucose concentration), which FUJI was cultured in RPMI medium with 10% FBS and penicillin/streptomycin. The following day, glucose-containing media was removed, and each well was washed with 1-2 mL of phosphate buffered saline (PBS) three times to ensure elimination of residual glucose. Glucose-free media was then replaced in each well for the duration of the experiment. At the end point, the glucose-free media was removed and each well washed with 1 mL of PBS. One-half milliliter of trypsin 0.05% was then applied to each well, later aggressively resuspended in 0.5 mL of media for a total cell volume of 1 mL. Twenty microliters of each well was then counted via hemocytometer, excluding those non-viable cells that were positive for trypan blue uptake and/or fragmented.\nFor the evaluation of glucose deprivation alone and under additional conditions, cell lines were plated in a 6-well format at 200,000 cells per well on day 1. SYO was cultured and plated in Dulbecco's Modified Eagle Medium (DMEM) with 10% FBS and penicillin/streptomycin (include additional glucose concentration), which FUJI was cultured in RPMI medium with 10% FBS and penicillin/streptomycin. The following day, glucose-containing media was removed, and each well was washed with 1-2 mL of phosphate buffered saline (PBS) three times to ensure elimination of residual glucose. Glucose-free media was then replaced in each well for the duration of the experiment. […]"}, "[2]": {"test_system": "SYO-1 and FUJI cell lines", "assay": "Erastin / sigma-2 erastin treatment, cell death", "assay_type": "cell-based", "details": "in as little as 8 hours, compared to control lines SKLMS-1 and MG63", "experimental": "as §1\n(§2) For the evaluation of glucose deprivation alone and under additional conditions, cell lines were plated in a 6-well format at 200,000 cells per well on day 1. SYO was cultured and plated in Dulbecco's Modified Eagle Medium (DMEM) with 10% FBS and penicillin/streptomycin (include additional glucose concentration), which FUJI was cultured in RPMI medium with 10% FBS and penicillin/streptomycin. […] Samples were then ran and fluorescence analyzed via Blue FL2 channel on a FAScan instrument. […]"}, "[3]": {"assay": "Phase I open-label study of olaratumab and doxorubicin in patients with advanced soft tissue sarcoma (PK, DDI, safety)", "experimental": "Patients with metastatic or locally advanced STS not amenable to treatment with surgery or curative radiotherapy, aged years with an ECOG PS of 0-2 and documented LVE fraction ≥50% were included. The primary objective was to assess the effect of Olara on the PK of Dox. Secondary objectives were to further characterize the PK and safety profiles of Olara alone and in combination with Dox. Drug-drug interaction (DDI) was assessed in 21-day cycles, where patients received each drug alone (Cycle 1) then in combination (Cycle 2). In Cycles 3-8, patients with clinical benefit could continue treatment with Olara+Dox. 15-mg/kg Olara was given IV over ˜60 min; 75-mg/m^2 Dox was given IV over ˜15 min."}, "SYO-1 xenograft tumor": {"test_system": "SYO-1 xenograft tumor", "assay": "SYO-1 xenograft in nude athymic mice, tumor size", "assay_type": "in vivo", "details": "1 mg/day for 12 days", "experimental": "Sixty nude athymic mice (Nu/J homozygous Cat#002019, The Jackson Lab) were xenografted with 1×10^6 SYO-1 cells that had been resuspended in 1×PBS 30% Matrigel (Corning, Inc., Cat# CB-40234). Mice were anesthetized with 1-2% isofluorane and injected at the left flank. The mice were observed until each tumor size was 100 mm3 by caliper measurement, at which point each individual mouse began daily injections of DHEA 1 mg/30 uL ( ), SWV-49s 3.75 mM, SWV-273.75 mM, SV-119 3.75 mM, SWV-27/SV-119 3.75 mM, or control vehicle Cremiphor. All agents were suspended in Cremiphor. Treatment or placebo injections continued for a total of 12 days. Daily caliper and weight measurements for a total of 30 days were undertaken for each cohort. Mice were sacrificed appropriately by “ ” guidelines and after the conclusion of the in vivo experiment."}, "[4]": {"test_system": "SYO-1 and FUJI cell lines", "assay": "Treatment with G6PD inhibitor DHEA and DHEA analogs, cell death", "assay_type": "cell-based", "details": "over a course of 48 hours", "experimental": "as §1, §2"}, "[5]": {"details": "pretreatment one hour prior to glucose-free media change"}}, "note": "Where a SMILES comes first, the peptide text is derived from it. The star is where a group is joined. Cbz = O=C(OCc1ccccc1)*; CH2F = FC*"}
{"molecule": "Cc1c(O)c(=O)ccn1C", "note": "[deferiprone]", "values": [{"measurement": "protection from cell death under glucose deprivation", "setting": "[1]; pretreated one hour prior to glucose deprivation, acute time course of 2-6 hours", "result": "significant protection from cell death"}]}
{"molecule": "CN1C(=O)C(Cc2c[nH]c3ccccc23)NC1=S", "note": "(stereo not shown) [necrostatin]", "values": [{"measurement": "protection from cell death under glucose deprivation", "setting": "[1]; [5]", "result": "did not result in protection from cell death"}]}
{"molecule": "CCOc1ccccc1-n1c(C(C)N2CCN(C(=O)COc3ccc(Cl)cc3)CC2)nc2ccccc2c1=O", "note": "(stereo not shown) [erastin]", "values": [{"measurement": "cell death", "setting": "[2]", "result": "approximately 40%"}]}
{"molecule": "Olaratumab", "values": [{"measurement": "effect on systemic exposure to Dox", "setting": "[3]; IV infusion, both agents given in combination", "result": "did not have a clinically relevant effect"}, {"measurement": "CL", "setting": "[3]; human, in vivo", "result": 0.0218, "unit": "L/h"}, {"measurement": "mean CL", "setting": "[3]; human, in vivo", "result": 0.0259, "unit": "L/h"}, {"measurement": "mean Cmax", "setting": "[3]; human, in vivo", "result": 393, "unit": "µg/mL"}, {"measurement": "median tmax post start of infusion", "setting": "[3]; human, in vivo", "result": "~2.8", "unit": "h"}, {"measurement": "time of Cmax post start of infusion", "setting": "[3]; human, in vivo", "result": "~2", "unit": "h"}, {"measurement": "mean Cmax", "setting": "[3]; human, in vivo, iv, 15 mg/kg", "result": 293, "unit": "µg/mL"}]}
{"molecule": "CC(=O)N[C@@H](CS)C(=O)O", "note": "[NAC]", "values": [{"measurement": "protection from cell death under glucose deprivation", "setting": "[1]; 10 mM, pretreated one hour prior to glucose deprivation, 2 and 6 hours", "result": "protection from cell death was noted"}]}
{"molecule": "C[C@]12CC[C@H](O)CC1=CC[C@@H]1[C@@H]2CC[C@]2(C)C(=O)CC[C@@H]12", "note": "[DHEA, dehydroepiandrosterone]", "values": [{"measurement": "tumor size", "setting": "SYO-1 xenograft tumor", "result": "dramatic decrease in tumor size"}, {"measurement": "tolerability of dose and regimen", "setting": "SYO-1 xenograft tumor; murine model", "result": "well-tolerated"}, {"measurement": "cell death", "setting": "[4]", "result": "varying but significant cell death"}]}
{"molecule": "CC(NC(=O)C(NC(=O)OCc1ccccc1)C(C)C)C(=O)NC(CC(=O)O)C(=O)CF", "note": "(stereo not drawn) [ZVAD] (Cbz-Val-Ala-Asp-CH2F; configuration not given here)", "values": [{"measurement": "protection from cell death under glucose deprivation", "setting": "[1]; [5]", "result": "did not result in protection from cell death"}]}
{"molecule": "CCOC(=O)c1ccc(NC2CCCCC2)c(N)c1", "note": "[ferrostatin]", "values": [{"measurement": "protection from cell death under glucose deprivation", "setting": "[1]; [5]", "result": "significant protection from glucose-deprivation mediated cell death"}]}
